These are literature values, as cited in patent US4122157A, “Nitrofurantoin sustained release tablet” (Richardson-Merrell Inc., priority 1977, dated 1978).

SMILES strings stand for the structures.

For the series the following is noted: background statement.

`O=C1CN(N=Cc2ccc([N+](=O)[O-])o2)C(=O)N1` [Nitrofurantoin, 1-[(5-nitrofurfurylidene)amino]hydantoin]: the tolerability in humans entry is reported as “remarkably well tolerated in humans”. The “most frequent adverse reactions” value (humans) was “anorexia, nausea and emesis”.
